Test results: patent US20260344661A1, “USE OF AN ALKYLETHER SULFATE FOR IMPROVING THE EFFICACY OF HERBICIDES” (BASF SE, priority 2022, published 2026)

Assays:
[1] = tested on: HORVW (winter barley); test: Greenhouse post-emergence weed control, damage vs untreated (HORVW); format: in vivo, Hordeum vulgare; details: 20 DAT
[2] = tested on: AVEFA (wild oat); test: Greenhouse post-emergence weed control, damage vs untreated (AVEFA); format: in vivo, Avena fatua
Method: (§1) A greenhouse study was conducted to evaluate the effect of the alkylether sulfates of formula (I) and other adjuvants on the weed control efficacy of glufosinate. Seedlings of grass plants (AVEFA, ECHCG, DIGSA and SETVI) and broadleaf weeds (KCHSC, CHEAL, AMAPA, AMATA and ABUTH) were grown to a height of 3 to 20 cm, depending on the plant habit in 10×10×10 cm pots filled with sandy planting soil (Limburgerhof soil). The weeds were treated with postemergence applications of glufosinate ammonium at the respective application rates given in the following tables, either alone or combined with various amounts of the respective adjuvants.
(§2) For this, the herbicide formulation and the respective adjuvant were introduced into tap water to obtain the spray liquor. […] The spray liquor was then applied to the plant a spray volume of 200 l/ha using a sprayer (XR Teejet 110015).
(§3) The test period extended over 21 days. During this time, the plants were tended, and their response to the treatments with active compound was evaluated.
(§4) The evaluation for the damage caused by the chemical compositions was carried out using a scale from 0 to 100%, compared to the untreated control plants. Here, 0 means no damage and 100 means complete destruction of the plants.
(§5) The plants used in the greenhouse experiments belonged to the following species:
(§6) The results are summarized in the following tables 1 to 15 that show the applied doses of the individual actives as gram of active ingredient per hectare (g ai/ha), the herbicidal activity of the individual […]

[3] = tested on: DIGSA (large crabgrass); test: Greenhouse post-emergence weed control, damage vs untreated (DIGSA); format: in vivo, Digitaria sanguinalis; details: 20 DAT
Method: as §1, §2, §3, §4
(§7) The plants used in the greenhouse experiments belonged to the following species: […]

[4] = tested on: SETVI (green foxtail); test: Greenhouse post-emergence weed control, damage vs untreated (SETVI); format: in vivo, Setaria viridis
Method: as §1, §2, §3, §4, §5, §6

[5] = tested on: KCHSC (kochia); test: Greenhouse post-emergence weed control, damage vs untreated (KCHSC); format: in vivo, Kochia scoparia; details: 20 DAT
Method: as §1, §2, §3, §4, §7

[6] = tested on: CHEAL (lambsquarter); test: Greenhouse post-emergence weed control, damage vs untreated (CHEAL); format: in vivo, Chenopodium album
Method: as §1, §2, §3, §4, §5, §6

[7] = tested on: AMAPA (palmer amaranth); test: Greenhouse post-emergence weed control, damage vs untreated (AMAPA); format: in vivo, Amaranthus palmeri; details: 20 DAT
Method: as §1, §2, §3, §4, §5
(§8) The results are summarized in the following tables 1 to 15 that show the applied doses of the individual actives as gram of active ingredient per hectare (g ai/ha), the herbicidal activity of the individual actives and of their combinations in post-emergence application assessed 14 and 28 day after treatment (DAT), respectively.

[8] = tested on: AMATA (common water hemp); test: Greenhouse post-emergence weed control, damage vs untreated (AMATA); format: in vivo, Amaranthus tuberculatus; details: 20 DAT
Method: as §1, §2, §3, §4, §5, §8

[9] = tested on: ABUTH (velvetleaf); test: Greenhouse post-emergence weed control, damage vs untreated (ABUTH); format: in vivo, Abutilon theophrasti; details: 20 DAT
Method: as §1, §2
[…] During this time, the plants were tended, and their response to the treatments with active compound was evaluated.
as §4, §7

[10] = tested on: ØBLV (average value of KCHSC, CHEAL, AMAPA, AMATA and ABUTH); test: Greenhouse post-emergence weed control, average over broadleaf weeds (ØBLV); format: in vivo; details: 20 DAT
Method: as §1, §2, §3, §4, §5, §8

[11] = tested on: HORVS (spring barley); test: Greenhouse post-emergence weed control, damage vs untreated (HORVS); format: in vivo; details: 20 DAT
[12] = tested on: TRZAS (spring wheat); test: Greenhouse post-emergence weed control, damage vs untreated (TRZAS); format: in vivo, Soft wheat (spring)
[13] = tested on: AMATU (tall waterhemp); test: Greenhouse post-emergence weed control, damage vs untreated (AMATU); format: in vivo, Amaranthus tuberculatus; details: 20 DAT
Method: as §1, §2, §3, §4, §5, §8

[14] = tested on: ØBLV = Σ % activity (CHEAL + KCHSC + AMATU + ABUTH)/4; test: Greenhouse post-emergence weed control, average over broadleaf weeds (ØBLV, Tables 16-20); format: in vivo; details: average of CHEAL
[15] = 5 g ai/ha L-glufosinate (so in the source), no adjuvant
[16] = 37.5 g ai/ha L-glufosinate, adjuvant g ai/ha: none (CE1-B), 56 (IE2-A), 62.125 (IE2-B), 51.625 (CE2-F)
[17] = 150 g ai/ha L-glufosinate, adjuvant g ai/ha: none (CE1-B), 223 (IE2-A), 248.5 (IE2-B), 206.5 (CE2-F)
[18] = 300 g ai/ha L-glufosinate, adjuvant g ai/ha: none (CE1-B), 446 (IE2-A), 497 (IE2-B), 413 (CE2-F)
[19] = g ai/ha: 42.375 solo (CE1-C), 42.375 + 66.97 combined (IE3-A/B/C, CE2-J)
[20] = g ai/ha: 84.75 solo (CE1-C), 84.75 + 133.94 combined (IE3-A/B/C, CE2-J)
[21] = g ai/ha: 169.5 solo (CE1-C), 169.5 + 267.89 combined (IE3-A/B/C, CE2-J)
[22] = g ai/ha: 339 solo (CE1-C), 339 + 535.77 combined (IE3-A/B/C, CE2-J)

## CP(=O)(O)CC[C@H](N)C(=O)O.N [CE1-B, ammonium (2S)-2-amino-4-(methylphosphinato)butyric acid]
[1]; [15]
  % activity: 0%
[1]; [16]
  % activity: 5%
[1]; [17]
  % activity: 5%
[1]; [18]
  % activity: 15%
[2]; [15]
  % activity: 5%
[2]; [16]
  % activity: 0%
[2]; [17]
  % activity: 10%
[2]; [18]
  % activity: 20%
[2]; [19]
  % activity AVEFA: 3%
[2]; [20]
  % activity AVEFA: 3%
[2]; [21]
  % activity AVEFA: 5%
[2]; [22]
  % activity AVEFA: 8%
[3]; [15]
  % activity: 0%
[3]; [19]
  % activity DIGSA: 5%
[3]; [20]
  % activity DIGSA: 15%
[3]; [21]
  % activity DIGSA: 55%
[3]; [22]
  % activity DIGSA: 70%
[3]; [16]
  % activity: 0%
[3]; [17]
  % activity: 30%
[3]; [18]
  % activity: 40%
[4]; [15]
  % activity: 98%
[4]; [16]
  % activity: 85%
[4]; [17]
  % activity: 98%
[4]; [18]
  % activity: 95%
[5]; [15]
  % activity: 5%
[5]; [19]
  % activity KCHSC: 3%
[5]; [20]
  % activity KCHSC: 3%
[5]; [21]
  % activity KCHSC: 28%
[5]; [22]
  % activity KCHSC: 35%
[5]; [16]
  % activity: 0%
[5]; [17]
  % activity: 5%
[5]; [18]
  % activity: 10%
[6]; [15]
  % activity: 0%
[6]; [16]
  % activity: 0%
[6]; [17]
  % activity: 0%
[6]; [18]
  % activity: 15%
[6]; [19]
  % activity CHEAL: 0%
[6]; [20]
  % activity CHEAL: 0%
[6]; [21]
  % activity CHEAL: 5%
[6]; [22]
  % activity CHEAL: 10%
[7]; [15]
  % activity: 60%
[7]; [16]
  % activity: 98%
[7]; [17]
  % activity: 98%
[7]; [18]
  % activity: 98%
[8]; [15]
  % activity: 95%
[8]; [16]
  % activity: 20%
[8]; [17]
  % activity: 98%
[8]; [18]
  % activity: 98%
[9]; [15]
  % activity: 10%
[9]; [19]
  % activity ABUTH: 5%
[9]; [21]
  % activity ABUTH: 30%
[9]; [22]
  % activity ABUTH: 68%
[9]; [16]
  % activity: 10%
[9]; [17]
  % activity: 30%
[9]; [18]
  % activity: 60%
[10]; [15]
  % activity (ØBLV): 34%
[10]; [16]
  % activity (ØBLV): 26%
[10]; [17]
  % activity (ØBLV): 46%
[10]; [18]
  % activity (ØBLV): 56%
[11]; [19]
  % activity HORVS: 0%
[11]; [20]
  % activity HORVS: 0%
[11]; [21]
  % activity HORVS: 0%
[11]; [22]
  % activity HORVS: 10%
[12]; [19]
  % activity TRZAS: 0%
[12]; [20]
  % activity TRZAS: 0%
[12]; [21]
  % activity TRZAS: 5%
[12]; [22]
  % activity TRZAS: 5%
[13]; [19]
  % activity AMATU: 23%
[13]; [20]
  % activity AMATU: 75%
[13]; [21]
  % activity AMATU: 45%
[13]; [22]
  % activity AMATU: 97%
[14]; [19]
  % activity (ØBLV): 8%
[14]; [20]
  % activity (ØBLV): 26%
[14]; [21]
  % activity (ØBLV): 27%
[14]; [22]
  % activity (ØBLV): 53%
